The values that follow come from ChEMBL document CHEMBL5154855 (J Med Chem, 2022).

The target of test [1] is Melanocortin receptor 4 (Homo sapiens) (UniProt P32245). In words: Agonist activity at human MC4R transfected in HEK293T cells co-transfected with GScAMP22F assessed as increase in cAMP level. It is filed as functional, cell-based. The conditions noted are these: HEK293, filed as agonist.
For test [2], the target named is Melanocyte-stimulating hormone receptor (Homo sapiens) (UniProt Q01726). In words: Agonist activity at human MC1R transfected in HEK293 cells co-transfected with GScAMP22F assessed as increase in cAMP level by split luciferase cAMP sensor dynamic assay relative to control. It is filed as functional, cell-based.
Test [3] has as its target T1, Melanocortin receptor 3 (Homo sapiens, UniProt P41968). Put plainly: Antagonist activity at human MC3R transfected in HEK293T cells co-transfected with GScAMP22F assessed as inhibition of alpha-MSH-indued cAMP production. Conditions: HEK293, filed as antagonist. It is filed as functional, cell-based.
Test [4] addresses Melanocortin receptor 4 (Homo sapiens) (UniProt P32245). In words: Antagonist activity at human MC4R transfected in HEK293T cells co-transfected with GScAMP22F assessed as inhibition of alpha-MSH-indued cAMP production. It is filed as functional, cell-based. The conditions noted are these: HEK293, filed as antagonist.
The target of test [5] is T1, Melanocortin receptor 3. Put plainly: Agonist activity at human MC3R transfected in HEK293 cells assessed as cAMP accumulation by split-luciferase assay.
Test [6] has as its target T1, Melanocortin receptor 3. In words: Agonist activity at human MC3R transfected in HEK293T cells co-transfected with GScAMP22F assessed as increase in cAMP level. It is filed as functional, cell-based. The conditions noted are these: HEK293, filed as agonist.
For test [7], the target named is Melanocortin receptor 5 (Homo sapiens) (UniProt P33032). In words: Agonist activity at human MC5R transfected in HEK293 cells co-transfected with GScAMP22F assessed as increase in cAMP level by split luciferase cAMP sensor dynamic assay relative to control. It is filed as functional, cell-based.

pEC50: −log10 of the molar value. Active and inactive are the calls of the source. The rule behind the calls is not given here. Positions of bridges follow the written chain, without caps; N, C: chain ends. Non-standard residues stand in square brackets, D forms with d. Residues, ends and D or L forms follow the SMILES beside them. d2Nal = N[C@H](Cc1ccc2ccccc2c1)C(=O)O; Nle = CCCC[C@H](N)C(=O)O

Sequence of Melanocortin receptor 4 (Homo sapiens) (P32245 whole entry): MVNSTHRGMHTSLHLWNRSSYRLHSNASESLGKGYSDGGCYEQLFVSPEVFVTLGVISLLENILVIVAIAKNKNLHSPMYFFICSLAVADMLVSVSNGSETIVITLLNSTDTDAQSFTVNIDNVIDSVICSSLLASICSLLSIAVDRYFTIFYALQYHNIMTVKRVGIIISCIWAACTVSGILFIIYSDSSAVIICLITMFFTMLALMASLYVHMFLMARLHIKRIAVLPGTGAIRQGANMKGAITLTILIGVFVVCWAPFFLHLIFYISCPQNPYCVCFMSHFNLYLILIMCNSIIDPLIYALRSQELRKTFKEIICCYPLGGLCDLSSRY
T1 sequence (P41968 whole entry): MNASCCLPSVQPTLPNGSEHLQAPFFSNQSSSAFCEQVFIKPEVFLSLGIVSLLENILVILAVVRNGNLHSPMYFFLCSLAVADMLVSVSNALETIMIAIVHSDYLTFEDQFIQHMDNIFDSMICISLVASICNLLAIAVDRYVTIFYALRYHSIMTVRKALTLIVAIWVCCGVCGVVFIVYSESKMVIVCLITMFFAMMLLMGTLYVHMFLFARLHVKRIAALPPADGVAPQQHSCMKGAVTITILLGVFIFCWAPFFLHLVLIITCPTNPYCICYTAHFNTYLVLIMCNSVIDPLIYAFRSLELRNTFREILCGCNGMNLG
Sequence of Melanocyte-stimulating hormone receptor (Homo sapiens) (Q01726 whole entry, looked up): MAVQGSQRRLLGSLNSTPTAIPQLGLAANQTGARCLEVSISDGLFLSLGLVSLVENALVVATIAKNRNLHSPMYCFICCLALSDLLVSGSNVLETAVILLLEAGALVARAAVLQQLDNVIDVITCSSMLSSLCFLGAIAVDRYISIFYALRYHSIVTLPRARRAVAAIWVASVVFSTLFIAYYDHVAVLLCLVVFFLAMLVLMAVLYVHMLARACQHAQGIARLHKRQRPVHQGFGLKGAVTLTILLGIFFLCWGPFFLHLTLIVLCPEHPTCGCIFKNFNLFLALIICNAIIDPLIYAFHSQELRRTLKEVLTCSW
Sequence of Melanocortin receptor 5 (Homo sapiens) (P33032 whole entry): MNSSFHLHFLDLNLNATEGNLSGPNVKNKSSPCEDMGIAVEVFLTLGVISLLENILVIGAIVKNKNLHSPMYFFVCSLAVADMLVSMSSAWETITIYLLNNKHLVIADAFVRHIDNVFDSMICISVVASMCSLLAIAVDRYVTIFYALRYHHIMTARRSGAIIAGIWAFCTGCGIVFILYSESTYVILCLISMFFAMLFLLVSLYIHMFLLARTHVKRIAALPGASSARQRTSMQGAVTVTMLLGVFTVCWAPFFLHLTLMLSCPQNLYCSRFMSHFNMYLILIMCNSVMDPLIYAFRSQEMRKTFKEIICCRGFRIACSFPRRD

Regarding `CCCC[C@H](NC(=O)[C@@H](NC(=O)[C@@H](N)Cc1ccc(O)cc1)C(C)C)C(=O)NCC(=O)N[C@@H](Cc1cnc[nH]1)C(=O)N[C@@H](Cc1ccccc1)C(=O)N[C@@H](CCCNC(=N)N)C(=O)N[C@H](Cc1c[nH]c2ccccc12)C(=O)N[C@@H](CC(=O)O)C(=O)N[C@@H](CCCNC(=N)N)C(=O)N[C@@H](Cc1ccccc1)C(=O)NCC(=O)O`, the result in test [1] was Active. As to `CCCC[C@H](NC(C)=O)C(=O)N[C@H]1CC(=O)NCCCC[C@@H](C(N)=O)NC(=O)[C@H](Cc2c[nH]c3ccccc23)NC(=O)[C@H](CCCNC(=N)N)NC(=O)[C@@H](Cc2ccc3ccccc3c2)NC(=O)[C@@H]2CCCN2C(=O)[C@@H]2CCCN2C1=O` (Ac-[Nle]DPP[d2Nal]RWK-NH2; lactam 2-8), in test [2], the Emax is under 10%. As to `CC(=O)N[C@@H](CCCNC(=N)N)C(=O)N[C@@H]1CSSC[C@H](C(N)=O)NC(=O)[C@H](Cc2c[nH]c3ccccc23)NC(=O)[C@H](CCCNC(=N)N)NC(=O)[C@@H](Cc2ccc3ccccc3c2)NC(=O)[C@H](Cc2c[nH]cn2)NC(=O)[C@@H](C)NC1=O`, the outcome in test [3] and in test [4] was Active. With `CCCC[C@H](NC(=O)[C@@H](NC(=O)[C@@H](N)Cc1ccc(O)cc1)C(C)C)C(=O)NCC(=O)N[C@@H](Cc1c[nH]cn1)C(=O)N[C@H](Cc1ccc2ccccc2c1)C(=O)N[C@@H](CCCN=C(N)N)C(=O)N[C@@H](Cc1c[nH]c2ccccc12)C(=O)N[C@@H](CC(=O)O)C(=O)N[C@@H](CCCN=C(N)N)C(=O)N[C@@H](Cc1ccccc1)C(=O)NCC(N)=O`, the pEC50 in test [5] was under 5.00.

In the case of `CCCC[C@H](NC(=O)[C@@H](NC(=O)[C@@H](N)Cc1ccc(O)cc1)C(C)C)C(=O)NCC(=O)N[C@@H](Cc1cnc[nH]1)C(=O)N[C@H](Cc1ccc2ccccc2c1)C(=O)N[C@@H](CCCNC(=N)N)C(=O)N[C@H](Cc1c[nH]c2ccccc12)C(=O)N[C@@H](CC(=O)O)C(=O)N[C@@H](CCCNC(=N)N)C(=O)N[C@@H](Cc1ccccc1)C(=O)NCC(=O)O`, the outcome in test [3] and in test [4] was Active.

For the compound `CC(=O)N[C@@H](CCCNC(=N)N)C(=O)N[C@H]1CSSC[C@@H](C(N)=O)NC(=O)[C@H](Cc2c[nH]c3ccccc23)NC(=O)[C@H](CCCNC(=N)N)NC(=O)[C@@H](Cc2ccccc2)NC(=O)[C@H](Cc2c[nH]cn2)NC(=O)[C@@H](C)NC1=O`, the result in test [6] and in test [1] was Active. With `CCCC[C@H](N)C(=O)N[C@H]1CC(=O)NCCCC[C@@H](C(N)=O)NC(=O)[C@H](Cc2c[nH]c3ccccc23)N(C)C(=O)[C@H](CCCNC(=N)N)NC(=O)[C@@H](Cc2ccccc2)NC(=O)[C@@H]2CCCN2C1=O`, the outcome in test [6] and in test [1] was Active. Take `CCCC[C@H](NC(=O)[C@@H](NC(=O)[C@@H](N)Cc1ccc(O)cc1)C(C)C)C(=O)NCC(=O)N1CCC[C@H]1C(=O)N[C@H](Cc1ccc2ccccc2c1)C(=O)N[C@@H](CCCN=C(N)N)C(=O)N[C@@H](Cc1c[nH]c2ccccc12)C(=O)N[C@@H](CC(=O)O)C(=O)N[C@@H](CCCN=C(N)N)C(=O)N[C@@H](Cc1ccccc1)C(=O)NCC(N)=O` (H-YV[Nle]GP[d2Nal]RWDRFG-NH2): the Emax in test [7] was under 10%.
